Where a name gives a salt, the structure may show the parent alone.

In experiment [1] the target is T1, human B1R (Homo sapiens, UniProt P46663).
T1 construct: expressed in transfected cells; host or cells: CHO K1 cells
T1 sequence (P46663 1-353): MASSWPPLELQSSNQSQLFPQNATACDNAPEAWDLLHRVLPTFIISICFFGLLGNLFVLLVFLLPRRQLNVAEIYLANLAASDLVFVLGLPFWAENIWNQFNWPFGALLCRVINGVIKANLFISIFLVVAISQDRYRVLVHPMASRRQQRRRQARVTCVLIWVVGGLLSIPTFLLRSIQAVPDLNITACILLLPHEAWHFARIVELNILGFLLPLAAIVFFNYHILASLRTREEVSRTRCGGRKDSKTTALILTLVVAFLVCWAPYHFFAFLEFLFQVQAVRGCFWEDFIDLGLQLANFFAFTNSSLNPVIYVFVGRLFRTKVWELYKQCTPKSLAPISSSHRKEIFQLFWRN
Briefly: Functional investigation on the bradykinin 1 receptor (B1R), cell-based fluorescent calcium-mobilization assay (FLIPR/Novostar), human. As to conditions: 10 μM test substance, CHO K1 cells stably transfected with human B1R gene, agonist Lys-Des-Arg9-bradykinin at EC80, % inhibition compared with maximum achievable inhibition; for inhibition at 10 µM: read-out: B1R antagonism, human [10 μM] % inhibition. How it is done:
(§1) The agonistic or antagonistic action of substances can be quantified on the bradykinin 1 receptor (B1R) of the human and rat species with ectopically expressing cell lines (CHO K1 cells) and with the aid of a Ca^2+-sensitive dyestuff (Fluo-4) in a fluorescent imaging plate reader (FLIPR). The figure in % activation is based on the Ca^2+ signal after addition of Lys-Des-Arg^9-bradykinin (0.5 nM) or Des-Arg^9-bradykinin (100 nM). Antagonists lead to a suppression of the Ca^2+ inflow after addition of the agonist. % inhibition compared with the maximum achievable inhibition is stated.
(§2) The agonistic or antagonistic action of substances can be determined on the bradykinin 1 receptor (B1R) of humans and rats by means of a cell-based flourescent calcium-mobilization assay. According to this assay agonist-induced increase of intracellular free Ca^2+ is quantified by means of a Ca^2+-sensitive dye (Fluo-4 type, Molecular Probes Europe BV, Leiden, Netherlands), in a Fluorescent Imaging Plate Reader (FLIPR, Molecular Devices, Sunnyvale, USA) and/or the Novostar (BMG Labtech GmbH, Offenburg, Germany).
(§3) Chinese hamster ovary cells (CHO K1 cells), which are stably transfected with the human B1R gene (hB1R cells) or with the B1R gene of rats (rB1R cells), are used. For functional investigations these cells are seeded into black 96-well plates with a clear bottom (BD Biosciences, Heidelberg, Germany or Greiner, Frickenhausen, Germany) in a density of 20,000-35,000 cells/well. The cells are incubated overnight in a humidified atmosphere at 37° C. and 5% CO2 in culture medium (hB1R cells: Nutrient Mixture Ham's F12, Gibco Invitrogen GmbH, Karlsruhe, Germany or DMEM, Sigma-Aldrich, Taufkirchen, Germany; rB1R cells: D-MEM/F12, Gibco Invitrogen GmbH, Karlsruhe, Germany) with 10 vol. % FBS (foetal bovine serum, Gibco Invitrogen GmbH, Karlsruhe, Germany).
(§4) On the following day the cells are loaded with the Ca^2+-sensitive dye Fluo-4-AM (Molecular Probes Europe BV, Leiden, Netherlands):
(§5) Method A: The medium of the cells is removed and cell plates are incubated with loading solution, which contains 2.13 μM Fluo-4-AM, 2.5 mM probenecid (Sigma-Aldrich, Taufkirchen, Germany), and 10 mM HEPES (Sigma-Aldrich, Taufkirchen, Germany) in HBSS buffer (Hank's buffered saline solution, Gibco Invitrogen GmbH, Karlsruhe, Germany) for 60 minutes at 37° C. After the plates are washed twice with HBSS buffer, HBSS buffer supplemented 0.1% BSA (bovine serum albumin; Sigma-Aldrich, Taufkirchen, Germany), 5.6 mM glucose and 0.05% gelatine (Merck KGaA, Darmstadt, Germany) is added. Cell plates are incubated for at least 20 minutes in the dark at room temperature before they are used for the Ca^2+ measurement in the FLIPR or Novostar.
(§6) Method B: The plates are washed with buffer A (15 mM HEPES, 80 mM NaCl, 5 mM KCl, 1.2 mM CaCl2, 0.7 mM MgSO4, 2 mg/ml glucose, 2.5 mM probenecid) and subsequently loaded with buffer A containing 2.4 μM Fluo-4-AM and 0.025% pluronic F127 (Sigma-Aldrich, Taufkirchen, Germany) for 60 minutes at 37° C. Cell plates are washed twice with buffer A. Then, buffer A supplemented with 0.05% BSA and 0.05% gelatine is added and cell plates are incubated in the dark at room temperature for at least 20 minutes before measurement in the FLIPR or Novostar is started.
(§7) The Ca^2+-dependent fluorescence is measured both before and after the addition of substances (λex=488 nm, λem=540 nm). For quantification of the effect the highest fluorescence intensity (FC, fluorescence counts) over time is given. The FLIPR protocol consists of two substance additions, done within the instrument while continuously monitoring the Ca^2+-dependent fluorescence at 540 nm. When the Novostar was used, one addition had to be done outside the instrument. Test substances (10 μM) are initially pipetted onto the cells and the intracellular Ca^2+ rise is compared with the control (hB1R: Lys-Des-Arg9-bradykinin>=50 nM; rB1R: Des-Arg9-bradykinin>=1 μM). […]

Experiment [2] deals with T2, B1R of rats (Rattus norvegicus, UniProt P97583).
T2 construct: expressed in transfected cells; host or cells: CHO K1 cells
T2 sequence (P97583 1-337): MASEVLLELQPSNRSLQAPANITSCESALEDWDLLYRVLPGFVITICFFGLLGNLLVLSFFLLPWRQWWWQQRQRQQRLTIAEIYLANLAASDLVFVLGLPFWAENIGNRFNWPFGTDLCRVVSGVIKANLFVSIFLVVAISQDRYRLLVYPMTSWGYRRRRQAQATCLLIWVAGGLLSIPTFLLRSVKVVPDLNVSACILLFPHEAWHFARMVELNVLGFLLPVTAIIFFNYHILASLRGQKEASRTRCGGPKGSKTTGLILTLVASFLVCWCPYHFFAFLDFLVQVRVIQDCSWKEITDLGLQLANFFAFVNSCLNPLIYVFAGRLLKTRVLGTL
Briefly: Functional investigation on the bradykinin 1 receptor (B1R), cell-based fluorescent calcium-mobilization assay (FLIPR/Novostar), rat. As to conditions: 10 μM test substance, CHO K1 cells stably transfected with rat B1R gene, agonist Des-Arg9-bradykinin at EC80, % inhibition compared with maximum achievable inhibition; for inhibition at 10 µM: read-out: B1R antagonism, rat [10 μM] % inhibition. As for the experimental part:
as §1, §2, §3, §4, §5, §6, §7

With `COc1cc(C)c(S(=O)(=O)N(C)CCOCC(=O)N2CCC(CNC(=O)c3ccncc3)(N3CCN(C)CC3)CC2)c(C)c1` [Example 48, N-((1-(2-(2-(4-Methoxy-N,2,6-trimethylphenylsulfonamido)ethoxy)acetyl)-4-(4-methylpiperazin-1-yl)piperidin-4-yl)methyl)isonicotinamide hydrochloride], in experiment [1] (hydrochloride, 10 µM), the “B1R antagonism, human [10 μM] % inhibition” value is given as 100%. The “B1R antagonism, rat [10 μM] % inhibition” value in experiment [2] (hydrochloride, 10 µM) was 97%.
For orientation: inhibition means the change of the read-out against control, counted positive when it falls. Consider `CN1CCN(C2(CNC(=O)c3ccncc3)CCN(C(=O)COCC3CCc4ccccc4N3S(=O)(=O)c3ccc(Cl)c(Cl)c3)CC2)CC1` (centres unmarked) [Example 30, N-((1-(2-((1-(3,4-dichlorophenylsulfonyl)-1,2,3,4-tetrahydroquinolin-2-yl)methoxy)acetyl)-4-(4-methylpiperazin-1-yl)piperidin-4-yl)methyl)-isonicotinamide], for which the inhibition at 10 µM in experiment [1] is 100%; in experiment [2], 80%.
Turning to `CN1CCN(C2(CNC(=O)c3ccncc3)CCN(C(=O)CC(NS(=O)(=O)c3ccc4ccccc4c3)c3ccccc3)CC2)CC1` (centres unmarked) [Example 37, N-((4-(4-methylpiperazin-1-yl)-1-(3-(naphthalene-2-sulfonamido)-3-phenylpropanoyl)piperidin-4-yl)methyl)isonicotinamide], the values for the inhibition at 10 µM in experiment [1] and in experiment [2] were 46% and 71%, respectively.
Take `CC(=O)NCC1(N2CCN(c3ccncc3)CC2)CCN(C(=O)CC(NS(=O)(=O)c2ccc3ccccc3c2)c2ccccc2)CC1` (centres unmarked) [Example 14, N-((1-(3-(naphthalene-2-sulfonamido)-3-phenylpropanoyl)-4-(4-(pyridin-4-yl)piperazin-1-yl)piperidin-4-yl)methyl)acetamide]: the values for the inhibition at 10 µM in experiment [1] and in experiment [2] were 100% and 82%, respectively.
For `Cc1cc(S(=O)(=O)N2CCCCC2CCC(=O)N2CCC(CNC(=O)Cc3ccccc3)(N3CCN(C)CC3)CC2)c(C)cc1Cl` (centres unmarked) [Example 10, N-((1-(3-(1-(4-chloro-2,5-dimethylphenylsulfonyl)piperidin-2-yl)propanoyl)-4-(4-methylpiperazin-1-yl)piperidin-4-yl)methyl)-2-phenylacetamide], the results for the inhibition at 10 µM in experiment [1] and in experiment [2] were 101% and 39%, respectively.
For `COc1cc(C)c(S(=O)(=O)N(C)CCOCC(=O)N2CCC(CNC(=O)c3ccncc3)(N3CCN(C)CC3)CC2)c(C)c1C` [Example 51, N-((1-(2-(2-(4-Methoxy-N,2,3,6-tetramethylphenylsulfonamido)ethoxy)acetyl)-4-(4-methylpiperazin-1-yl)piperidin-4-yl)methyl)isonicotinamide], in that order: 100% and 103%.
For `COc1cc(C)c(S(=O)(=O)N(C)CCOCC(=O)N2CCC(CNC(=O)Cc3ccccc3)(N3CCN(C)CC3)CC2)c(C)c1` [Example 15, N-((1-(2-(2-(4-methoxy-N,2,6-trimethylphenylsulfonamido)ethoxy)acetyl)-4-(4-methylpiperazin-1-yl)piperidin-4-yl)methyl)-2-phenylacetamide], in that order: 103% and 101%.
Take `O=C(NCC1(N2CCN(C3CC3)CC2)CCN(C(=O)COCCN(C2CC2)S(=O)(=O)c2ccccc2C(F)(F)F)CC1)c1ccncc1` [Example 47, N-((1-(2-(2-(N-Cyclopropyl-2-(trifluoromethyl)phenylsulfonamido)ethoxy)acetyl)-4-(4-cyclopropylpiperazin-1-yl)piperidin-4-yl)methyl)isonicotinamide]: the inhibition at 10 µM was determined as 100% in experiment [1] and 99% in experiment [2].
Turning to `CC(=O)NCC1(N2CCN(c3ccncc3)CC2)CCN(C(=O)CC2CCCCN2S(=O)(=O)c2cccc(C(F)(F)F)c2)CC1` (centres unmarked) [Example 36, N-((4-(4-(pyridin-4-yl)piperazin-1-yl)-1-(2-(1-(3-(trifluoromethyl)phenyl-sulfonyl)piperidin-2-yl)acetyl)piperidin-4-yl)methyl)acetamide], the inhibition at 10 µM stood at 99% in experiment [1] and 101% in experiment [2].
`COc1cc(C)c(S(=O)(=O)N(C)CCOCC(=O)N2CCC(CNC(C)=O)(N3CCN(C)CC3)CC2)c(C)c1` [Example 31, N-((1-(2-(2-(4-methoxy-N,2,6-trimethylphenylsulfonamido)ethoxy)acetyl)-4-(4-methylpiperazin-1-yl)piperidin-4-yl)methyl)acetamide]: the inhibition at 10 µM in experiment [1] is 103%; in experiment [2], 101%.
For `COc1cc(C)c(S(=O)(=O)N2CCCCC2COCC(=O)N2CCC(CNC(=O)c3ccncc3)(N3CCN(C)CC3)CC2)c(C)c1` (centres unmarked) [Example 28, N-((1-(2-((1-(4-methoxy-2,6-dimethylphenylsulfonyl)piperidin-2-yl)methoxy)acetyl)-4-(4-methylpiperazin-1-yl)piperidin-4-yl)methyl)-isonicotinamide], the inhibition at 10 µM in experiment [1] and in experiment [2] was 102% throughout.
`CN1CCN(C2(CNC(=O)c3ccccn3)CCN(C(=O)CC(NS(=O)(=O)c3ccc4ccccc4c3)c3ccccc3)CC2)CC1` (centres unmarked) [Example 19, N-((4-(4-methylpiperazin-1-yl)-1-(3-(naphthalene-2-sulfonamido)-3-phenylpropanoyl)piperidin-4-yl)methyl)picolinamide]: the inhibition at 10 µM in experiment [1] worked out at 102%; in experiment [2], 83%.
For `CC(=O)NCC1(N2CCN(c3ccncc3)CC2)CCN(C(=O)COCC2CCc3ccccc3N2S(=O)(=O)c2ccc(Cl)c(Cl)c2)CC1` (centres unmarked) [Example 17, N-((1-(2-((1-(3,4-dichlorophenylsulfonyl)-1,2,3,4-tetrahydroquinolin-2-yl)methoxy)acetyl)-4-(4-(pyridin-4-yl)piperazin-1-yl)piperidin-4-yl)methyl)acetamide], in that order: 104% and 101%.

Source of the values: patent US8541573B2, “Substituted sulfonamide compounds” (Gruenenthal GmbH, priority 2008, dated 2013).
